Data from paper PMC5844530, “Fosmetpantotenate (RE-024), a phosphopantothenate replacement therapy for pantothenate kinase-associated neurodegeneration: Mechanism of action and efficacy in nonclinical models” (PLoS ONE, 2018).
Values joined by “and” are separate entries in the source; they are usually repeats but may differ in a detail not shown here. Identical values can stand only once.

Key:
[1] = Pharmacokinetics in whole blood, Sprague-Dawley rats; conditions: for % Parent AUCAll: Sprague-Dawley rat, metabolite AUCall/Parent AUCall x 100; for Whole Blood Conc. of compound 2: Sprague-Dawley rats; for concentration at 4 h / concentration at 8 h / concentration at 2 h / concentration at 0.5 h: Sprague-Dawley, rat, whole blood, po, Whole Blood Conc. of compound 2, Sprague-Dawley rats
Experimental: (§1) The whole blood samples (0.5 mL) were collected into syringes that were prefilled with 2.5 mL of ice-cold 0.1% formic acid in acetonitrile. The volume ratio of the whole blood to 0.1% formic acid in acetonitrile was 1/5 (v/v). Samples were frozen (-70°C) until analyzed by LC-MS/MS.
(§2) Standard curves and quality control (QC) samples were prepared fresh on the day of analysis by serial dilution of the standard mixture in quenched whole blood (1 part of blood to 5 parts of 0.1% formic acid in acetonitrile) and centrifuged. […] The frozen study samples were thawed in an ice/water bath and centrifuged. Supernatant (50 μL) from standards, QC samples, and study samples was transferred to a 96-well plate and dried completely under nitrogen. The dried residues were reconstituted with 100 μL of 0.1% formic acid in water containing internal standard (5 ng/mL of ^15N/^13C3-RE-024-02) and analyzed by LC-MS/MS.
(§3) LC-MS/MS analysis for blood pharmacokinetic samples: Samples were analyzed using an Agilent 1100 binary pump (Agilent Technologies, Santa Clara, CA, USA), connected to an AB Sciex API 6500 mass spectrometer (SCIEX, Framingham, MA, USA). An electrospray ionization source was used, scanning in the positive mode. […] The chromatography column was a Varian Metasil AQ 120–5 C18 column, 5 μm, 50 x 2.00 mm (Part No. A0530050X020) at ambient temperature, with a 0.5 mL/min flow rate and a 20 μL injection volume. Mobile phase (A) consisted of 0.1% formic acid in water; while mobile phase (B) consisted of 0.1% formic acid in acetonitrile:water (9:1, v/v).
(§4) Quantitation of in vivo samples: Peak areas were integrated using Analyst software (AB Sciex, Concord, Ontario, Canada). […] Calibration standards (at a minimum 7 per curve) were fit by linear regression with (1/x^2) weighting. QC samples were used (triplicate) at 3 concentrations for all tandem mass spectrometry (MS/MS) runs.
(§5) Pharmacokinetic calculations: PK analysis was performed using Phoenix WinNonlin®, Build 6.3.0.395 (Certara, Princeton, NJ, USA) using a non-compartmental model (PO dose = model 200 for extravascular dosing). […] Post-dose concentrations below the limit of quantitation (BLQ) were omitted from calculation.

[2] = Pharmacokinetics in whole blood, cynomolgus monkeys
Experimental: as §1, §2, §3, §4, §5

[3] = Pharmacokinetics in whole blood, CD-1 mice; conditions: for % Parent AUCAll: CD1 mouse, metabolite AUCall/Parent AUCall x 100; for Whole Blood Conc. of compound 2: CD-1 mice; for concentration at 0.083 h / concentration at 2 h / concentration at 4 h / concentration at 8 h / concentration at 0.333 h / concentration at 0.5 h / concentration at 1 h: male, CD-1, mouse, whole blood, po, Whole Blood Conc. of compound 2, CD-1 mice
[4] = 100 mg/kg, single 100 mg/kg RE-024-02 PO, LLOQ 3 ng/mL
[5] = 100 mg/kg, single 100 mg/kg RE-024-02 PO, LLOQ 10.2 nM

- % Parent AUCAll ([1]; 300 mg/kg PO): 1,250%
- % Parent AUCAll ([1]; 700 mg/kg PO): 220%
- Whole Blood Conc. of compound 2 ([1]; single 300 mg/kg RE-024-02 PO, time 2, LLOQ 3 ng/mL, 300 mg/kg): 38.46 ng/mL and 47.10 ng/mL
- Whole Blood Conc. of compound 2 ([1]; single 300 mg/kg RE-024-02 PO, time 2, LLOQ 10.2 nM, 300 mg/kg): 130.27 nM and 159.54 nM
- Whole Blood Conc. of compound 2 ([1]; single 300 mg/kg RE-024-02 PO, time 8, LLOQ 3 ng/mL, 300 mg/kg): 5.25 ng/mL and 7.14 ng/mL
- Whole Blood Conc. of compound 2 ([1]; single 300 mg/kg RE-024-02 PO, time 8, LLOQ 10.2 nM, 300 mg/kg): 17.78 nM and 24.18 nM
- Whole Blood Conc. of compound 2 ([1]; single 700 mg/kg RE-024-02 PO, time 0.5, LLOQ 3 ng/mL, 700 mg/kg): 247.20 ng/mL and 285.00 ng/mL
- Whole Blood Conc. of compound 2 ([1]; single 700 mg/kg RE-024-02 PO, time 0.5, LLOQ 10.2 nM, 700 mg/kg): 837.31 nM and 965.35 nM
- Whole Blood Conc. of compound 2 ([1]; single 700 mg/kg RE-024-02 PO, time 2, LLOQ 3 ng/mL, 700 mg/kg): 61.80 ng/mL and 118.20 ng/mL
- Whole Blood Conc. of compound 2 ([1]; single 700 mg/kg RE-024-02 PO, time 2, LLOQ 10.2 nM, 700 mg/kg): 209.33 nM and 400.37 nM
- concentration at 4 h ([1]; 100 mg/kg, single 100 mg/kg RE-024-02 PO, time 4, LLOQ 3 ng/mL): 5.57 ng/mL
- concentration at 4 h ([1]; 100 mg/kg, single 100 mg/kg RE-024-02 PO, time 4, LLOQ 10.2 nM): 18.9 nM
- concentration at 8 h ([1]; 100 mg/kg, single 100 mg/kg RE-024-02 PO, time 8, LLOQ 3 ng/mL): 6.42 ng/mL
- concentration at 8 h ([1]; 100 mg/kg, single 100 mg/kg RE-024-02 PO, time 8, LLOQ 10.2 nM): 21.8 nM
- concentration at 2 h ([1]; 300 mg/kg, single 300 mg/kg RE-024-02 PO, time 2, LLOQ 10.2 nM): 258 nM
- concentration at 8 h ([1]; 300 mg/kg, single 300 mg/kg RE-024-02 PO, time 8, LLOQ 3 ng/mL): 9.36 ng/mL
- concentration at 8 h ([1]; 300 mg/kg, single 300 mg/kg RE-024-02 PO, time 8, LLOQ 10.2 nM): 31.7 nM
- concentration at 2 h ([1]; male, 300 mg/kg, single 300 mg/kg RE-024-02 PO, time 2, LLOQ 3 ng/mL): 76.2 ng/mL
- concentration at 0.5 h ([1]; male, 700 mg/kg, single 700 mg/kg RE-024-02 PO, time 0.5, LLOQ 3 ng/mL): 452 ng/mL
- concentration at 0.5 h ([1]; male, 700 mg/kg, single 700 mg/kg RE-024-02 PO, time 0.5, LLOQ 10.2 nM): 1530 nM
- concentration at 2 h ([1]; male, 700 mg/kg, single 700 mg/kg RE-024-02 PO, time 2, LLOQ 3 ng/mL): 105 ng/mL
- concentration at 2 h ([1]; male, 700 mg/kg, single 700 mg/kg RE-024-02 PO, time 2, LLOQ 10.2 nM): 356 nM
- % Parent AUCAll ([2]; Cynomolgus monkey, 300 mg/kg PO, metabolite AUCall/Parent AUCall x 100): 132%
- concentration at 0.5 h ([2]; cynomolgus monkey, whole blood, po, 300 mg/kg, Concentration of compound 2 in whole blood, cynomolgus monkeys, single oral 300 mg/kg fosmetpantotenate, 0.5 hr, LLOQ 2.03 nM): 1860 nM
- concentration at 1 h ([2]; cynomolgus monkey, whole blood, po, 300 mg/kg, Concentration of compound 2 in whole blood, cynomolgus monkeys, single oral 300 mg/kg fosmetpantotenate, 1 hr, LLOQ 2.03 nM): 1970 nM
- concentration at 4 h ([2]; cynomolgus monkey, whole blood, po, 300 mg/kg, Concentration of compound 2 in whole blood, cynomolgus monkeys, single oral 300 mg/kg fosmetpantotenate, 4 hr, LLOQ 2.03 nM): 2350 nM
- concentration at 8 h ([2]; cynomolgus monkey, whole blood, po, 300 mg/kg, Concentration of compound 2 in whole blood, cynomolgus monkeys, single oral 300 mg/kg fosmetpantotenate, 8 hr, LLOQ 2.03 nM): 1150 nM
- Concentration of compound 2 in whole blood ([2]; cynomolgus monkeys, single oral 300 mg/kg fosmetpantotenate, 0.083 hr, LLOQ 2.03 nM): BQL
- Concentration of compound 2 in whole blood ([2]; cynomolgus monkeys, single oral 300 mg/kg fosmetpantotenate, 0.5 hr, LLOQ 2.03 nM, 300 mg/kg): 1210.45 nM
- Concentration of compound 2 in whole blood ([2]; cynomolgus monkeys, single oral 300 mg/kg fosmetpantotenate, 1 hr, LLOQ 2.03 nM, 300 mg/kg): 2023.57 nM
- Concentration of compound 2 in whole blood ([2]; cynomolgus monkeys, single oral 300 mg/kg fosmetpantotenate, 4 hr, LLOQ 2.03 nM, 300 mg/kg): 4441.22 nM
- Concentration of compound 2 in whole blood ([2]; cynomolgus monkeys, single oral 300 mg/kg fosmetpantotenate, 8 hr, LLOQ 2.03 nM, 300 mg/kg): 996.85 nM
- % Parent AUCAll ([3]; 100 mg/kg PO): 8,550%
- % Parent AUCAll ([3]; 300 mg/kg PO): 29,800%
- % Parent AUCAll ([3]; 700 mg/kg PO): 7,220%
- Whole Blood Conc. of compound 2 ([3]; single 300 mg/kg RE-024-02 PO, 0.333 hr, LLOQ 10.2 nM, 300 mg/kg): 1676.7 nM and 1863.6 nM and 1325.1 nM
- Whole Blood Conc. of compound 2 ([3]; single 300 mg/kg RE-024-02 PO, 0.5 hr, LLOQ 10.2 nM, 300 mg/kg): 1599.4 nM and 1111.7 nM and 955.2 nM
- Whole Blood Conc. of compound 2 ([3]; single 300 mg/kg RE-024-02 PO, 4 hr, LLOQ 3 ng/mL, 300 mg/kg): 15.4 ng/mL and 22.8 ng/mL and 26.2 ng/mL
- Whole Blood Conc. of compound 2 ([3]; single 300 mg/kg RE-024-02 PO, 4 hr, LLOQ 10.2 nM, 300 mg/kg): 52.2 nM and 77.2 nM and 88.6 nM
- Whole Blood Conc. of compound 2 ([3]; single 700 mg/kg RE-024-02 PO, 0.333 hr, LLOQ 3 ng/mL, 700 mg/kg): 1656 ng/mL
- Whole Blood Conc. of compound 2 ([3]; single 700 mg/kg RE-024-02 PO, 0.333 hr, LLOQ 10.2 nM, 700 mg/kg): 5609.2 nM
- Whole Blood Conc. of compound 2 ([3]; single 700 mg/kg RE-024-02 PO, 1 hr, LLOQ 3 ng/mL, 700 mg/kg): 318 ng/mL and 373.2 ng/mL and 381 ng/mL
- Whole Blood Conc. of compound 2 ([3]; single 700 mg/kg RE-024-02 PO, 1 hr, LLOQ 10.2 nM, 700 mg/kg): 1077.1 nM and 1264.1 nM and 1290.5 nM
- Whole Blood Conc. of compound 2 ([3]; single 700 mg/kg RE-024-02 PO, 4 hr, LLOQ 3 ng/mL, 700 mg/kg): 84 ng/mL and 92.4 ng/mL and 88.2 ng/mL
- Whole Blood Conc. of compound 2 ([3]; single 700 mg/kg RE-024-02 PO, 4 hr, LLOQ 10.2 nM, 700 mg/kg): 284.5 nM and 313 nM and 298.8 nM
- concentration at 0.083 h [3, 4]: 17.4 ng/mL
- concentration at 0.083 h [3, 5]: 58.9 nM
- concentration at 2 h [3, 4]: 5.1 ng/mL
- concentration at 2 h [3, 5]: 17.3 nM
- concentration at 4 h ([3]; 100 mg/kg, single 100 mg/kg RE-024-02 PO, 4 hr, LLOQ 3 ng/mL): 3.5 ng/mL
- concentration at 4 h ([3]; 100 mg/kg, single 100 mg/kg RE-024-02 PO, 4 hr, LLOQ 10.2 nM): 11.7 nM
- concentration at 8 h [3, 4]: 3.5 ng/mL
- concentration at 8 h [3, 5]: 11.9 nM
- concentration at 0.333 h ([3]; 300 mg/kg, single 300 mg/kg RE-024-02 PO, 0.333 hr, LLOQ 3 ng/mL): 443 ng/mL
- concentration at 0.333 h ([3]; 300 mg/kg, single 300 mg/kg RE-024-02 PO, 0.333 hr, LLOQ 10.2 nM): 1500 nM
- concentration at 0.5 h ([3]; 300 mg/kg, single 300 mg/kg RE-024-02 PO, 0.5 hr, LLOQ 3 ng/mL): 254 ng/mL
- concentration at 0.5 h ([3]; 300 mg/kg, single 300 mg/kg RE-024-02 PO, 0.5 hr, LLOQ 10.2 nM): 860 nM
- concentration at 4 h ([3]; 300 mg/kg, single 300 mg/kg RE-024-02 PO, 4 hr, LLOQ 3 ng/mL): 21.9 ng/mL
- concentration at 4 h ([3]; 300 mg/kg, single 300 mg/kg RE-024-02 PO, 4 hr, LLOQ 10.2 nM): 74.2 nM
- concentration at 0.333 h ([3]; 700 mg/kg, single 700 mg/kg RE-024-02 PO, 0.333 hr, LLOQ 3 ng/mL): 1910 ng/mL
- concentration at 0.333 h ([3]; 700 mg/kg, single 700 mg/kg RE-024-02 PO, 0.333 hr, LLOQ 10.2 nM): 6460 nM
- concentration at 1 h ([3]; 700 mg/kg, single 700 mg/kg RE-024-02 PO, 1 hr, LLOQ 3 ng/mL): 541 ng/mL
- concentration at 1 h ([3]; 700 mg/kg, single 700 mg/kg RE-024-02 PO, 1 hr, LLOQ 10.2 nM): 1830 nM
- concentration at 4 h ([3]; 700 mg/kg, single 700 mg/kg RE-024-02 PO, 4 hr, LLOQ 3 ng/mL): 104 ng/mL
- concentration at 4 h ([3]; 700 mg/kg, single 700 mg/kg RE-024-02 PO, 4 hr, LLOQ 10.2 nM): 354 nM
Structure (SMILES): COC(=O)CCNC(=O)[C@@H]1OP(=O)(O)OCC1(C)C [Compound 2]
- Whole Blood Conc. of compound 2 ([3]; single 300 mg/kg RE-024-02 PO, 0.333 hr, LLOQ 3 ng/mL, 300 mg/kg): 495 ng/mL and 550.2 ng/mL and 391.2 ng/mL
- Whole Blood Conc. of compound 2 ([3]; single 300 mg/kg RE-024-02 PO, 0.5 hr, LLOQ 3 ng/mL, 300 mg/kg): 472.2 ng/mL and 328.2 ng/mL and 282 ng/mL
